EP0673922A1, “Non-ionic iodinated dimers as X-ray contrast agents, process for their preparation and pharmaceutical compositions containing them” (CENTRO INVESTIGACION JUSTESA IMAGEN S.A., priority 1994, dated 1995)

Legend:
[1] = Solubility in water; type: physicochemical
[2] = Osmolality of aqueous solution; type: physicochemical
Protocol: (§1) Die Produkte der Erfindung der allgemeinen Formel I sind durch eine gute Löslichkeit in Wasser bei 20°C, eine Osmolalität in wässriger Lösung, die kleiner als die Osmolalität des Blutes (280 mOs/kg) ist, sowie durch eine niedrige allgemeine Toxizität gekennzeichnet, die als […] (LD₅₀) in Ratte bei intravenöser Gabe ausgedrückt wird.

[3] = system: Ratte; test: General (acute) toxicity, LD50 after intravenous administration; type: in vivo; conditions: rat, intravenous administration (b7)
Protocol: as §1

[4] = Viscosity of aqueous solution; type: physicochemical

| Structure (SMILES) | Löslichkeit in Wasser bei 20°C und 300 mg I/ml [1] | Osmolatität bei 37°C und 300 mg I/ml [2] | LD₅₀ Ratte [3] | Viskosität bei 37°C und 300 mg I/ml [4] |
| --- | --- | --- | --- | --- |
| CNC(=O)c1c(I)c(C(=O)NCC(O)CO)c(I)c(N(CC(O)CO)C(=O)C(O)C(=O)N(CC(O)CO)c2c(I)c(C(=O)NC)c(I)c(C(=O)NCC(O)CO)c2I)c1I (stereo not drawn) [Beispiel 2, N,N'-Bis-(2,3-dihydroxypropyl)-N,N'-bis-{3-[N-(2,3-dihydroxypropyl)carbamoyl]-5-(N-methylcarbamoyl)-2,4,6-triiodphenyl}-hydroxymalonamid] | <60% |  |  |  |
| CN(C(=O)C(=O)C(=O)N(C)c1c(I)c(C(=O)NCC(O)CO)c(I)c(C(=O)NCC(O)CO)c1I)c1c(I)c(C(=O)NCC(O)CO)c(I)c(C(=O)NCC(O)CO)c1I (stereo not drawn) [Beispiel 13, N,N'-Dimethyl-N,N'-bis-{3,5-bis[N-(2,3-dihydroxypropyl)carbamoyl]-2,4,6-triiodphenyl}cetomalonamid] | >60% | 160 mOs/kg | >15 g I/kg | 10,9 mPa·s |
| O=C(NCCO)c1c(I)c(C(=O)NCC(O)CO)c(I)c(N(CCO)C(=O)C(O)C(=O)N(CCO)c2c(I)c(C(=O)NCCO)c(I)c(C(=O)NCC(O)CO)c2I)c1I (stereo not drawn) [Beispiel 10, N,N'-Bis-(2-hydroxyethyl)-N,N'-bis-{3-[N-(2,3-dihydroxypropyl)carbamoyl]-5-[N-(2-hydroxyethyl)carbamoyl]-2,4,6-triiodphenyl}hydroxymalonamid] | >60% | 170 mOs/kg | >15 g I/kg | 7,3 mPa·s |
| CC(=O)N(CC(O)CN(C(C)=O)c1c(I)c(C(=O)NCC(O)CO)c(I)c(C(=O)NCC(O)CO)c1I)c1c(I)c(C(=O)NCC(O)CO)c(I)c(C(=O)NCC(O)CO)c1I (stereo not drawn) [IODIXANOL, Iodixanol, reference compound] | >60% | 200 mOs/kg | >15 g I/kg | 8,7 mPa·s |
| CN(C(=O)C(O)C(=O)N(C)c1c(I)c(C(N)=O)c(I)c(C(=O)NCC(O)CO)c1I)c1c(I)c(C(N)=O)c(I)c(C(=O)NCC(O)CO)c1I (stereo not drawn) [Beispiel 5, N,N'-Dimethyl-N,N'-bis-{5-carbamoyl-3-[N-(2,3-dihydroxypropyl)carbamoyl]-2,4,6-triiodphenyl}hydroxymalonamid] | <60% |  |  |  |
| NC(=O)c1c(I)c(C(=O)NC(CO)C(O)CO)c(I)c(N(CCO)C(=O)C(O)C(=O)N(CCO)c2c(I)c(C(N)=O)c(I)c(C(=O)NC(CO)C(O)CO)c2I)c1I (stereo not drawn) [Beispiel 9, N,N'-Bis-(2-hydroxyethyl)-N,N'-bis-{5-carbamoyl-3-[N-(1-hydroxymethyl-2,3-dihydroxy-propyl)carbamoyl]-2,4,-6-triiodphenyl}hydroxymalonamid] | <60% |  |  |  |
| CN(C(=O)C(=O)C(=O)N(C)c1c(I)c(C(N)=O)c(I)c(C(=O)NCC(O)CO)c1I)c1c(I)c(C(N)=O)c(I)c(C(=O)NCC(O)CO)c1I (stereo not drawn) [Beispiel 14, N,N'-Dimethyl-N,N'-bis-{5-carbamoyl-3-[N-(2,3-dihydroxypropyl)carbamoyl]-2,4,6-triiodphenyl}cetomalonamid] | <60% |  |  |  |
| NC(=O)c1c(I)c(C(=O)NCC(O)CO)c(I)c(N(CC(O)CO)C(=O)C(O)C(=O)N(CC(O)CO)c2c(I)c(C(N)=O)c(I)c(C(=O)NCC(O)CO)c2I)c1I (stereo not drawn) [Beispiel 12, N,N'-Bis-(2,3-dihydroxypropyl)-N,N'-bis-{5-carbamoyl-3-[N-(2,3-dihydroxypropyl)carbamoyl]-2,4,6-triiodphenyl}-hydroxymalonamid] | >60% | 240 mOs/kg | >15 g I/kg | 6,5 mPa·s |
| O=C(NCCO)c1c(I)c(C(=O)NCC(O)CO)c(I)c(N(CC(O)CO)C(=O)C(O)C(=O)N(CC(O)CO)c2c(I)c(C(=O)NCCO)c(I)c(C(=O)NCC(O)CO)c2I)c1I (stereo not drawn) [Beispiel 11, N,N'-Bis-(2,3-dihydroxypropyl)-N,N'-bis-{3-[N-(2,3-dihydroxypropyl)carbamoyl]-5-[N-(2-hydroxyethyl)carbamoyl]-2,4,6-triiodphenyl}hydroxymalonamid] | >60% | 210 mOs/kg | >15 g I/kg | 7,8 mPa·s |
| CN(C(=O)C(O)C(=O)N(C)c1c(I)c(C(=O)NCC(O)CO)c(I)c(C(=O)NCC(O)CO)c1I)c1c(I)c(C(N)=O)c(I)c(C(=O)NCC(O)CO)c1I (stereo not drawn) [Beispiel 7, N,N'-Dimethyl-N-{5-carbamoyl-3-[N-(2,3-dihydroxypropyl)carbamoyl]-2,4,6-triiodphenyl}-N'-{3,5-bis-[N-(2,3-dihydroxypropyl)carbamoyl]-2,4,6-triiodphenyl}hydroxymalonamid] | >60% | 170 mOs/kg | >15 g I/kg | 8,1 mPa·s |
| CNC(=O)c1c(I)c(C(=O)NCC(O)CO)c(I)c(N(CCO)C(=O)C(O)C(=O)N(CCO)c2c(I)c(C(=O)NC)c(I)c(C(=O)NCC(O)CO)c2I)c1I (stereo not drawn) [Beispiel 1, N,N-Bis-(2-hydroxyethyl)-N,N'-bis-(3-[N-(2,3-dihydroxypropyl)carbamoyl]-5-(N-methylcarbamoyl)-2,4,6-triiodphenyl}hydroxymalonamid] | <60% |  |  |  |
| NC(=O)c1c(I)c(C(=O)NCC(O)CO)c(I)c(N(CCO)C(=O)C(O)C(=O)N(CCO)c2c(I)c(C(N)=O)c(I)c(C(=O)NCC(O)CO)c2I)c1I (stereo not drawn) [Beispiel 8, N,N'-Bis-(2-hydroxyethyl)-N,N'-bis-{5-carbamoyl-3-[N-(2,3-dihydroxypropyl)carbamoyl]-2,4,6-triiodphenyl}-hydroxymalonamid] | <60% |  |  |  |
| O=C(NCCO)c1c(I)c(C(=O)NCC(O)CO)c(I)c(N(CC(O)CO)C(=O)CC(=O)N(CC(O)CO)c2c(I)c(C(=O)NCCO)c(I)c(C(=O)NCC(O)CO)c2I)c1I (stereo not drawn) [Beispiel 4, N,N'-Bis-(2,3-hydroxypropyl)-N,N'-bis-{3-[N-(2,3-dihydroxypropyl)carbamoyl]-5-[N-(2-hydroxyethyl)carbamoyl]-2,4,6-triiodphenyl}malonamid] | >60% | 190 mOs/kg | >15 g I/kg | 6,8 mPa·s |
| CN(C(=O)C(O)C(=O)N(C)c1c(I)c(C(N)=O)c(I)c(C(=O)NC(CO)C(O)CO)c1I)c1c(I)c(C(N)=O)c(I)c(C(=O)NC(CO)C(O)CO)c1I (stereo not drawn) [Beispiel 6, N,N'-Dimethyl-N,N'-bis-{5-carbamoyl-3-[N-(1-hydroxymethyl-2,3-dihydroxypropyl)carbamoyl]-2,4,6-triiodphenyl}-hydroxymalonamid] | <60% |  |  |  |
| O=C(NCCO)c1c(I)c(C(=O)NCC(O)CO)c(I)c(N(CCO)C(=O)CC(=O)N(CCO)c2c(I)c(C(=O)NCCO)c(I)c(C(=O)NCC(O)CO)c2I)c1I (stereo not drawn) [Beispiel 3, N,N'-Bis-(2-hydroxyethyl)-N,N'-bis-{3-[N-(2,3-dihydroxypropyl)-carbamoyl]-5-[N-(2-hydroxyethyl)carbamoyl]-2,4,6-triiodphenyl}-malonamid] | >60% | 160 mOs/kg | >15 g I/kg | 7,5 mPa·s |
